Assay results: the NIST ThermoML archive (doi:10.1016/j.jct.2018.01.003)
Numbers after ± are expanded uncertainties.

Experiment: activity coefficient (dimensionless); of the first substance listed, at infinite dilution; xn = mol fraction of the nth substance listed
Details: 101.33 kPa, Liquid, Chromatography, x1 = 0

Compound | activity coefficient (328.15 K) | activity coefficient (338.15 K) | activity coefficient (348.15 K) | activity coefficient (358.15 K) | activity coefficient (368.15 K)
CCCC(=O)OC [methyl butanoate] + CCCCCCCCCCCCCC[P+](CCCCCC)(CCCCCC)CCCCCC.N#CC(=C=[N-])C#N | 0.652 ± 0.045 | 0.683 ± 0.046 | 0.709 ± 0.047 | 0.739 ± 0.049 | 0.764 ± 0.05
COC(C)=O [methyl ethanoate] + CCCCCCCCCCCCCC[P+](CCCCCC)(CCCCCC)CCCCCC.N#CC(=C=[N-])C#N | 0.65 ± 0.044 | 0.669 ± 0.045 | 0.685 ± 0.046 | 0.704 ± 0.047 | 0.721 ± 0.048
CCC(=O)OC [methyl propanoate] + CCCCCCCCCCCCCC[P+](CCCCCC)(CCCCCC)CCCCCC.N#CC(=C=[N-])C#N | 0.616 ± 0.043 | 0.641 ± 0.044 | 0.663 ± 0.045 | 0.688 ± 0.046 | 0.711 ± 0.047
CC1CCCCC1 [methylcyclohexane] + CCCCCCCCCCCCCC[P+](CCCCCC)(CCCCCC)CCCCCC.N#CC(=C=[N-])C#N | 1.32 ± 0.09 | 1.33 ± 0.09 | 1.35 ± 0.09 | 1.36 ± 0.09 | 1.38 ± 0.09
CCCCCCCCC [nonane] + CCCCCCCCCCCCCC[P+](CCCCCC)(CCCCCC)CCCCCC.N#CC(=C=[N-])C#N | 2.66 ± 0.18 | 2.67 ± 0.18 | 2.69 ± 0.18 | 2.7 ± 0.18 | 2.71 ± 0.18
C=CCCCCCC [oct-1-ene] + CCCCCCCCCCCCCC[P+](CCCCCC)(CCCCCC)CCCCCC.N#CC(=C=[N-])C#N | 1.81 ± 0.12 | 1.85 ± 0.12 | 1.88 ± 0.13 | 1.91 ± 0.13 | 1.94 ± 0.13
CCCCCCCC [octane] + CCCCCCCCCCCCCC[P+](CCCCCC)(CCCCCC)CCCCCC.N#CC(=C=[N-])C#N | 2.35 ± 0.16 | 2.36 ± 0.16 | 2.37 ± 0.16 | 2.38 ± 0.16 | 2.39 ± 0.16
CCCC(C)=O [pentan-2-one] + CCCCCCCCCCCCCC[P+](CCCCCC)(CCCCCC)CCCCCC.N#CC(=C=[N-])C#N | – | 0.459 ± 0.036 | 0.477 ± 0.037 | 0.502 ± 0.038 | 0.52 ± 0.039
CCC(=O)CC [pentan-3-one] + CCCCCCCCCCCCCC[P+](CCCCCC)(CCCCCC)CCCCCC.N#CC(=C=[N-])C#N | – | 0.451 ± 0.036 | 0.47 ± 0.037 | 0.494 ± 0.038 | 0.514 ± 0.038
CCCCC [pentane] + CCCCCCCCCCCCCC[P+](CCCCCC)(CCCCCC)CCCCCC.N#CC(=C=[N-])C#N | 1.59 ± 0.11 | 1.62 ± 0.11 | 1.64 ± 0.11 | 1.67 ± 0.11 | 1.69 ± 0.11
CCCO [propan-1-ol] + CCCCCCCCCCCCCC[P+](CCCCCC)(CCCCCC)CCCCCC.N#CC(=C=[N-])C#N | 0.426 ± 0.035 | 0.437 ± 0.035 | 0.447 ± 0.036 | 0.457 ± 0.036 | 0.465 ± 0.036
CC(C)O [propan-2-ol] + CCCCCCCCCCCCCC[P+](CCCCCC)(CCCCCC)CCCCCC.N#CC(=C=[N-])C#N | 0.503 ± 0.038 | 0.507 ± 0.038 | 0.51 ± 0.038 | 0.514 ± 0.038 | 0.516 ± 0.038
c1ccncc1 [pyridine] + CCCCCCCCCCCCCC[P+](CCCCCC)(CCCCCC)CCCCCC.N#CC(=C=[N-])C#N | – | 0.401 ± 0.034 | 0.413 ± 0.034 | 0.425 ± 0.035 | 0.438 ± 0.035
C=Cc1ccccc1 [styrene] + CCCCCCCCCCCCCC[P+](CCCCCC)(CCCCCC)CCCCCC.N#CC(=C=[N-])C#N | 0.496 ± 0.038 | 0.52 ± 0.039 | 0.544 ± 0.04 | 0.57 ± 0.041 | 0.593 ± 0.042
C1CCOC1 [tetrahydrofuran] + CCCCCCCCCCCCCC[P+](CCCCCC)(CCCCCC)CCCCCC.N#CC(=C=[N-])C#N | 0.381 ± 0.033 | 0.4 ± 0.034 | 0.417 ± 0.035 | 0.436 ± 0.035 | 0.453 ± 0.036
c1ccsc1 [thiophene] + CCCCCCCCCCCCCC[P+](CCCCCC)(CCCCCC)CCCCCC.N#CC(=C=[N-])C#N | 0.41 ± 0.034 | 0.429 ± 0.035 | 0.445 ± 0.036 | 0.461 ± 0.036 | 0.478 ± 0.037
Cc1ccccc1 [toluene] + CCCCCCCCCCCCCC[P+](CCCCCC)(CCCCCC)CCCCCC.N#CC(=C=[N-])C#N | 0.558 ± 0.04 | 0.585 ± 0.041 | 0.611 ± 0.043 | 0.635 ± 0.044 | 0.656 ± 0.045
O [water] + CCCCCCCCCCCCCC[P+](CCCCCC)(CCCCCC)CCCCCC.N#CC(=C=[N-])C#N | 1.92 ± 0.13 | 1.77 ± 0.12 | 1.65 ± 0.11 | 1.54 ± 0.1 | 1.44 ± 0.09
